Measured values taken from patent US9346761B2, “Arginine methyltransferase inhibitors and uses thereof” (Epizyme, Inc., priority 2013, dated 2016).

How the values were obtained:
Full-length human PRMT6 = target: T1, Full-length human PRMT6 (Homo sapiens, UniProt Q96LA8); assay: PRMT6 biochemical assay (3H-SAM Flashplate, peptide substrate)
T1 construct: Flag-PRMT6-His was eluted with 200 ug/ml FLAG peptide in the same buffer; made in house; host or cells: HEK 293F cells (BacMam virus, pFastBacMam)
Excerpt: (§1) General Materials. S-adenosylmethionine (SAM), S-adenosylhomocysteine (SAH), bicine, Tween20, dimethylsulfoxide (DMSO), bovine skin gelatin (BSG), sodium butyrate and Tris(2-carboxyethyl)phosphine hydrochloride solution (TCEP) were purchased from Sigma-Aldrich at the highest level of purity possible. ^3H-SAM was purchase from American Radiolabeled Chemicals with a specific activity of 80 Ci/mmol. 384-well streptavidin Flashplates were purchased from PerkinElmer.
Substrates. Peptide representative of human histone H4 residues 36-50 was synthesized with an N-terminal linker-affinity tag motif and a C-terminal amide cap by 21st Century Biochemicals.
The amplified gene was subcloned into pFastBacMam (Viva Biotech).
Protein Expression. Recombinant baculovirus were generated according to Bac-to-Bac kit instructions (Life Technologies). […] Infections were carried out at 37° C. for 48 hours, harvested by centrifugation, and stored at −80° C. for purification.
Protein Purification. […] Column was washed with 20 mM imidazole in the same buffer and Flag-PRMT6-His was eluted with 150 mM imidazole. Pooled fractions were dialysed against buffer Ni-A and further purified by anti-flag M2 affinity chromatography. Flag-PRMT6-His was eluted with 200 ug/ml FLAG peptide in the same buffer. Pooled fractions were dialysed in 20 mM Tris, 150 mM NaCl, 10% glycerol and 5 mM β-mercaptoethanol, pH 7.8.
(§2) General Procedure for PRMT6 Enzyme Assays on Peptide Substrates. The assays were all performed in a buffer consisting of 20 mM Bicine (pH=7.6), 1 mM TCEP, 0.005% BSG, and 0.002% Tween 20, prepared on the day of use. […] DMSO (1 ul) was added to Columns 11, 12, 23, 24, rows A-H for the maximum signal control and 1 ul of SAH, a known product and inhibitor of PRMT6, was added to columns 11, 12, 23, 24, rows I-P for the minimum signal control. A cocktail (40 ul) containing the PRMT6 enzyme was added by Multidrop Combi (Thermo-Fisher). The compounds were allowed to incubate with PRMT6 for 30 min at room temperature, then a cocktail (10 ul) containing SAM and peptide was added to initiate the reaction (final volume=51 ul). […] The assays were stopped by the addition of non-radiolabeled SAM (10 ul) to a final concentration of 400 uM, which dilutes the ^3H-SAM to a level where its incorporation into the peptide substrate is no longer detectable. 50 ul of the reaction in the 384-well polypropylene plate was then transferred to a 384-well Flashplate and the biotinylated peptides were allowed to bind to the streptavidin surface for at least 1 hour before being washed once with 0.1% Tween20 in a Biotek ELx405 plate washer. The plates were then read in a PerkinElmer TopCount plate reader to measure the quantity of ^3H-labeled peptide bound to the Flashplate surface, measured as disintegrations per minute (dpm) or alternatively, referred to as counts per minute (cpm).
(§3) Where dpm=disintegrations per minute, cmpd=signal in assay well, and min and max are the respective minimum and maximum signal controls.
(§4) Where top and bottom are the normally allowed to float, but may be fixed at 100 or 0 respectively in a 3-parameter fit. The Hill Coefficient normally allowed to float but may also be fixed at 1 in a 3-parameter fit. Y is the % inhibition and X is the compound concentration.

[1] = system: mono-methyl arginine in RKO cells; assay: RKO methylation assay, In Cell Western for mono-methyl arginine and DNA content; assay type: cell-based; settings: Homo sapiens; In Cell Western, RKO cells, 72 hours, percent activation of mono-methyl arginine signal; read-out: EC30
Excerpt: RKO adherent cells were purchased from ATCC (American Type Culture Collection), Manassas, Va., USA. DMEM/Glutamax medium, penicillin-streptomycin, heat inactivated fetal bovine serum, 0.05% trypsin and D-PBS were purchased from Life Technologies, Grand Island, N.Y., USA. Odyssey blocking buffer, 800CW goat anti-rabbit IgG (H+L) antibody, and Licor Odyssey infrared scanner were purchased from Licor Biosciences, Lincoln, Nebr., USA. Mono-methyl arginine antibody was purchased from Cell Signaling Technology, Danvers, Mass., USA. Methanol was purchased from VWR, Franklin, Mass., USA. 10% Tween 20 was purchased from KPL, Inc., Gaithersburg, Md., USA. […] was purchased from Biostatus Limited, Leicestershire, UK.
RKO adherent cells were maintained in growth medium (DMEM/Glutamax medium supplemented with 10% v/v heat inactivated fetal bovine serum and 100 units/mL penicillin-streptomycin) and cultured at 37° C. under 5% CO2
Cell Treatment, in Cell Western (ICW) for Detection of Mono-Methyl Arginine and DNA Content. […] Compound (100 nL) from a 96-well source plate was added directly to 384 well cell plate. Plates were incubated at 37° C., 5% CO2 for 72 hours. After three days of incubation, plates were brought to room temperature outside of the incubator for ten minutes and blotted on paper towels to remove cell media. 50 μL of ice cold 100% methanol was added directly to each well and incubated for 30 min at room temperature. After 30 min, plates were transferred to a Biotek EL406 plate washer and washed 2 times with 100 μL per well of wash buffer (1×PBS). Next 60 μL per well of Odyssey blocking buffer (Odyssey Buffer with 0.1% Tween 20 (v/v)) were added to each plate and incubated 1 hour at room temperature. Blocking buffer was removed and 20 μL per well of primary antibody was added (mono-methyl arginine diluted 1:200 in Odyssey buffer with 0.1% Tween 20 (v/v)) and plates were incubated overnight (16 hours) at 4° C. Plates were washed 5 times with 100 μL per well of wash buffer. […] The plates were washed 5 times with 100 μL per well wash buffer then 2 times with 100 μL per well of water. Plates were allowed to dry at room temperature then imaged on the Licor Odyssey machine which measures integrated intensity at 700 nm and 800 nm wavelengths. Both 700 and 800 channels were scanned.
Calculations: First, the ratio for each well was determined by:
Each plate included fourteen control wells of DMSO only treatment (minimum activation) as well as fourteen control wells for maximum activation treated with 20 μM of a reference compound. The average of the ratio values for each control type was calculated and used to determine the percent activation for each test well in the plate. Reference compound was serially diluted three-fold in DMSO for a total of nine test concentrations, beginning at 20 μM. Percent activation was determined and EC30 curves were generated using triplicate wells per concentration of compound.

[2] = target: T2, Full-length human PRMT1 isoform 1 (Homo sapiens, UniProt Q99873); assay: PRMT1 biochemical assay (3H-SAM Flashplate, peptide substrate)
T2 construct: GST-tagged PRMT1; made in house; host or cells: High Five insect cells (baculovirus, pFastBacI)
Excerpt: as §1, with “(BSG),” for “(BSG), sodium butyrate”
Protein Expression. Recombinant baculovirus were generated according to Bac-to-Bac kit instructions (Life Technologies). […] Infections were carried out at 27° C. for 48 hours, harvested by centrifugation, and stored at −80° C. for purification.
Protein Purification. […] GST-tagged PRMT1 was eluted with 50 mM Tris, 2 mM glutathione, pH 7.8, dialysed in buffer A and concentrated to 1 mg/mL.
as §2, with “PRMT1” for “PRMT6”, “PRMT1,” for “PRMT6,”, “300” for “400”
as §3, §4

T2 sequence (Q99873 with tags, fused parts or gaps): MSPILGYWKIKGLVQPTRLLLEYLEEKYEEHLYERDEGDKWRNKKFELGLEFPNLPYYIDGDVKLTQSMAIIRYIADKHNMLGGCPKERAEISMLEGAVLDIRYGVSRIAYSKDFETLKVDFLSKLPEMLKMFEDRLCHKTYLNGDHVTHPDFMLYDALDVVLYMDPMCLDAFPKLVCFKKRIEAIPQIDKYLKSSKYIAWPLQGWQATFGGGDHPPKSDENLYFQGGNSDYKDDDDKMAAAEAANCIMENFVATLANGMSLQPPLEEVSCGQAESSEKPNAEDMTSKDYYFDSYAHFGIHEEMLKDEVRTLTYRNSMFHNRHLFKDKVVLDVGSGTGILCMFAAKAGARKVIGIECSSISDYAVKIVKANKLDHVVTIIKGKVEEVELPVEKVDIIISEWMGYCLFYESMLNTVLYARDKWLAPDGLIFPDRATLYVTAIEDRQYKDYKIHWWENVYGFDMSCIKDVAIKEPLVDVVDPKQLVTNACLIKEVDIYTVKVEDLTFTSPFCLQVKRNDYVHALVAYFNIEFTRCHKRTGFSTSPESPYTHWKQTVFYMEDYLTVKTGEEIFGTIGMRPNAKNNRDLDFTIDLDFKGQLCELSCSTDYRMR
T1 sequence (Q96LA8 with tags, fused parts or gaps): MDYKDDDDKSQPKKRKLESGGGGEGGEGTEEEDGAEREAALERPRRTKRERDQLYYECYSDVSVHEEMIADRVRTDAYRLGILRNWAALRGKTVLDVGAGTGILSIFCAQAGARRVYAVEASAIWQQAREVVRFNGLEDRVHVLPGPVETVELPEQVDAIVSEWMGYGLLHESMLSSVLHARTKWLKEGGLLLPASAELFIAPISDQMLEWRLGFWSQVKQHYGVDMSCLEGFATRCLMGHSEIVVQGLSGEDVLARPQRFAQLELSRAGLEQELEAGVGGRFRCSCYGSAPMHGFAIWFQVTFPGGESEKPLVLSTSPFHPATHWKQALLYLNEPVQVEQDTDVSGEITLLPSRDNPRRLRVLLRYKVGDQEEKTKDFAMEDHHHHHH

## CNCCN(C)Cc1c[nH]nc1-c1ccc(OC(C)C)cc1 [Compound 19, N^1-((3-(4-isopropoxyphenyl)-1H-pyrazol-4-yl)methyl)-N^1,N^2-dimethylethane-1,2-diamine]
Full-length human PRMT6
  IC50: < 100 nM
[1]
  EC30: < 3000 nM

## CNCCN(C)Cc1c[nH]nc1-c1ccc(OC2CCOCC2)cc1 [Compound 175]
[2]
  IC50: < 100 nM
Full-length human PRMT6
  IC50: < 100 nM
[1]
  EC30: < 3000 nM

## CC(C)Oc1ccc(-c2nn(C)cc2CN(C)CCN)cc1 [Compound 176]
[2]
  IC50: < 100 nM
Full-length human PRMT6
  IC50: < 100 nM
[1]
  EC30: < 3000 nM

## CC(C)Oc1ccc(-c2c(CN(C)CCN)cnn2C)cc1 [Compound 177]
[2]
  IC50: < 100 nM
Full-length human PRMT6
  IC50: < 100 nM
[1]
  EC30: < 3000 nM

## CN(CCN)Cc1c[nH]nc1-c1ccc(OC2CCOCC2)cc1 [Compound 178]
[2]
  IC50: < 100 nM
Full-length human PRMT6
  IC50: < 100 nM
[1]
  EC30: < 3000 nM

## COCCCOc1ccc(-c2n[nH]cc2CN(C)CCN)cc1 [Compound 179]
[2]
  IC50: < 100 nM
Full-length human PRMT6
  IC50: < 100 nM
[1]
  EC30: < 3000 nM

## CNCCN(C)Cc1c[nH]nc1-c1ccc(OC(C)C)c(F)c1 [Compound 181]
[2]
  IC50: < 100 nM
Full-length human PRMT6
  IC50: < 100 nM
[1]
  EC30: > 12000 nM

## CN(CCN)Cc1c[nH]nc1-c1ccc(OCCCN2CCOCC2)cc1 [Compound 186]
Full-length human PRMT6
  IC50: < 100 nM
[1]
  EC30: > 12000 nM

## CN(CCN)Cc1c[nH]nc1-c1ccc(N2CCN(C(=O)Cc3ccccc3)CC2)cc1 [Compound 190]
Full-length human PRMT6
  IC50: < 100 nM
[1]
  EC30: 3010 to 12000 nM

## CN(CCN)Cc1c[nH]nc1-c1ccc(Oc2ccccc2)cc1 [Compound 200]
[1]
  EC30: < 3000 nM

## CNCCN(C)Cc1cn[nH]c1-c1ccc(OC(C)C)c(Cl)c1 [Compound 201]
Full-length human PRMT6
  IC50: < 100 nM
[1]
  EC30: < 3000 nM

## CNCCN(C)Cc1cnn(C)c1-c1ccc(OC(C)C)c(Cl)c1 [Compound 220, N^1-((5-(3-chloro-4-isopropoxyphenyl)-1-methyl-1H-pyrazol-4-yl)methyl)-N^1,N^2-dimethylethane-1,2-diamine]
Full-length human PRMT6
  IC50: < 100 nM
[1]
  EC30: < 3000 nM

## COCCn1cnc(-c2ccc(C#N)cc2)c1CN(C)CCN [Compound 223]
[2]
  IC50: > 10000 nM
[1]
  EC30: > 12000 nM

## CNCCN(C)Cc1c[nH]nc1-c1cc(C(C)C)cc(C(C)C)c1 [Compound 229, N^1-((3-(3,5-diisopropylphenyl)-1H-pyrazol-4-yl)methyl)-N^1,N^2-dimethylethane-1,2-diamine]
[2]
  IC50: < 100 nM
Full-length human PRMT6
  IC50: 101 to 1000 nM
[1]
  EC30: 3010 to 12000 nM

## CNCCN(C)Cc1c[nH]nc1-c1ccc(Oc2cccc(OC)c2)cc1 [Compound 230]
[2]
  IC50: < 100 nM
Full-length human PRMT6
  IC50: < 100 nM
[1]
  EC30: < 3000 nM

## CNCCN(C)Cc1c[nH]nc1-c1ccc(Oc2cccc(F)c2)cc1 [Compound 231]
[2]
  IC50: < 100 nM
Full-length human PRMT6
  IC50: < 100 nM
[1]
  EC30: < 3000 nM

## CNCCN(C)Cc1c[nH]nc1-c1ccc(Oc2ccccc2)c(C(=O)NC)c1 [Compound 232]
[2]
  IC50: < 100 nM
Full-length human PRMT6
  IC50: < 100 nM
[1]
  EC30: 3010 to 12000 nM

## CNCCN(C)Cc1c[nH]nc1-c1ccc(Oc2ccccc2)c(C(=O)N(C)C)c1 [Compound 233]
[2]
  IC50: < 100 nM
Full-length human PRMT6
  IC50: < 100 nM
[1]
  EC30: > 12000 nM

## CNCCN(C)Cc1n[nH]cc1-c1ccc(Oc2ccccc2)c(C#N)c1 [Compound 234]
[2]
  IC50: < 100 nM
Full-length human PRMT6
  IC50: < 100 nM
[1]
  EC30: < 3000 nM

## CC(C)Cc1cccc(-c2n[nH]cc2CN(C)CCN)c1 [Compound 235]
[2]
  IC50: < 100 nM
Full-length human PRMT6
  IC50: 101 to 1000 nM
[1]
  EC30: < 3000 nM

## CNCCN(C)Cc1c[nH]nc1-c1ccc(OCCCO)cc1 [Compound 236]
[2]
  IC50: < 100 nM
Full-length human PRMT6
  IC50: < 100 nM
[1]
  EC30: < 3000 nM

## CNCCN(C)Cc1c[nH]nc1-c1ccc(Oc2ccccc2F)cc1 [Compound 237]
[2]
  IC50: < 100 nM
Full-length human PRMT6
  IC50: < 100 nM
[1]
  EC30: < 3000 nM

## CNCCN(C)Cc1c[nH]nc1-c1ccc(Oc2cccc(C(=O)N(C)C)c2)cc1 [Compound 264]
Full-length human PRMT6
  IC50: < 100 nM
[1]
  EC30: 3010 to 12000 nM

## CNCCN(C)Cc1n[nH]cc1-c1ccc(Oc2cccc(C(=O)N(C)C)c2)cc1 [Compound 269]
Full-length human PRMT6
  IC50: < 100 nM
[1]
  EC30: > 12000 nM

## CNCCN(C)Cc1n[nH]cc1-c1ccc(Oc2ccccc2C(=O)NC)cc1 [Compound 278]
Full-length human PRMT6
  IC50: < 100 nM
[1]
  EC30: 3010 to 12000 nM
